Data: ChEMBL document CHEMBL1155444, “(Bis)urea and (bis)thiourea inhibitors of lysine-specific demethylase 1 as epigenetic modulators” (J Med Chem, 2010)
The source made the active and inactive calls. The calls are words filed in the database; no cut-off is given here.

Legend:
Type in all cases: cell-based
Settings in all cases: HCT-116
[1] = target: Lysine-specific histone demethylase 1A (Homo sapiens) (UniProt O60341); test: Inhibition of LSD1 in human HCT116 cells assessed as increase in cellular histone 3 dimethyllysine 4 level treated at increasing concentration after 48 hrs
[2] = target: Lysine-specific histone demethylase 1A (Homo sapiens) (UniProt O60341); test: Inhibition of LSD1 in human HCT116 cells assessed as increase in cellular histone 3 methyllysine 4 level treated at increasing concentration after 48 hrs
[3] = target: Lysine-specific histone demethylase 1A (Homo sapiens) (UniProt O60341); test: Inhibition of LSD1 in human HCT116 cells assessed as increase in cellular histone 3 dimethyllysine 9 level treated at increasing concentration after 48 hrs

inhibition [1] | inhibition [2] | inhibition [3] | Compound
Active | Active | inactive | C/N=C(\NC)NCCCNCCCNCCCN/C(=N/C)NC
Active | Active | inactive | N=C(NCCCNCCCCCCCNCCCNC(=N)NC(=N)NCCC(c1ccccc1)c1ccccc1)NC(=N)NCCC(c1ccccc1)c1ccccc1
